According to patent publication US12012410B2, “Substituted pyrazolo[1,5-a]pyrazines for spinal muscular atrophy” (REBORNA BIOSCIENCES, INC., priority 2018, dated 2024):

System: FL-SMN mRNA (SMN transcript containing exons 7 and 8)
Assay: Live-cell assay to measure changes in FL-SMN mRNA levels (qPCR) after exposure to the compounds
Assay type: cell-based, human
Conditions: fibroblasts derived from patients SMA (GM03813); 24 hours incubation
Procedure, shortened: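 SMA patient fibroblasts (GM03813) in DMEM/10% FBS were treated with compound (0.1% DMSO final) for 24 h. FL-SMN and Δ7 mRNA were measured by RT-qPCR against oligo DNA standard curves and normalised to GAPDH. Values are % of the DMSO control, binned by asterisk from ≥100% to ≥180%.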

| SMILES | Percentage of increase (FL-SMN mRNA standardized against GAPDH, DMSO control set as 100%) |
| --- | --- |
| Cc1nc2ccc(-c3ccc4nc(C5CCN(C6CC6)CC5)[nH]c(=O)c4c3)cc2o1 [Example 83, 2-(1-cyclopropylpiperidin-4-yl)-6-(2-methyl-1,3-benzoxazol-6-yl)quinazolin-4(3H)-one] | ** (equal to or higher than 120% but lower than 150%) |
| Cc1nc2ccc(-c3ccc4nc(C5CCN(C)CC5)[nH]c(=O)c4c3)cc2o1 [Example 13, 6-(2-Methyl-1,3-benzoxazol-6-yl)-2-(1-methylpiperidin-4-yl)quinazolin-4(3H)-one] | **** (equal to or higher than 180%) |
| Cc1cn2nc(-c3nc4ccc(N5CCN(C)C[C@@H]5C)cc4c(=O)[nH]3)cc2c(C)n1 [Example 127, (S8)-6-(2,4-simethylpiperazin-1-yl)-2-(4,6-dimethylpyrazolo[1,5-a]pyrazin-2-yl)quinazolin-4(3H)-one] | *** (equal to or higher than 150% but lower than 180%) |
| CCN1CCN(c2ccc3nc(-c4cc5c(C)nc(C)cn5n4)[nH]c(=O)c3c2)[C@@H](C)C1 [Example 130, (S)-2-(4,6-dimethylpyrazolo[1,5-a]pyrazin-2-yl)-6-(4-ethyl-2-methylpiperazin-1-yl)quinazolin-4(3H)-one] | *** (equal to or higher than 150% but lower than 180%) |
| Cc1cn2cc(-c3cc(F)c4nc(C5CCN(C6CC6)CC5)[nH]c(=O)c4c3)cc2cn1 [Example 33, 2-(1-cyclopropylpiperidin-4-yl)-8-fluoro-6-(3-methylpyrrolo[1,2-a]pyrazin-7-yl)quinazolin-4(3H)-one acetate] | *** (equal to or higher than 150% but lower than 180%) |
| COc1cc(-c2ccc3nc(C4CCN(C)CC4)[nH]c(=O)c3c2)cn2cc(C)nc12 [Example 22, 6-(8-methoxy-2-methylimidazo[1,2-a]pyridine-6-yl)-2-(1-methylpiperidine-4-yl) kinazoline-4 (3H)-one] | **** (equal to or higher than 180%) |
| COCCN1CCN(c2ccc3nc(-c4cc5c(C)nc(C)cn5n4)[nH]c(=O)c3c2)CC1 [Example 82, 2-(4,6-dimethylpyrazolo[1,5-a]pyrazin-2-yl)-6-[4-(2-methoxyethyl)piperazin-1-yl]quinazolin-4(3H)-one] | ** (equal to or higher than 120% but lower than 150%) |
| Cc1cn2c(C)c(-c3ccc4nc(C5CCN(C)CC5)[nH]c(=O)c4c3)ccc2n1 [Example 61, 6-(2,5-dimethylimidazo[1,2-a]pyridin-6-yl)-2-(1-methylpiperidin-4-yl)quinazolin-4(3H)-one] | * (equal to or higher than 100% but lower than 120%) |
| Cc1cn2cc(-c3cc4c(=O)[nH]c(C5CCN(C6CC6)CC5)nc4cn3)cc(F)c2n1 [Example 114, 2-(1-cyclopropylpiperidin-4-yl)-6-(8-fluoro-2-methylimidazo[1,2-a]pyridin-6-yl)pyrido[3,4-d]pyrimidin-4(3H)-one] | **** (equal to or higher than 180%) |
| Cc1cn2nc(-c3nc4ccc(N5CCOCC5)cc4c(=O)[nH]3)cc2c(C)n1 [Example 79, 2-(4,6-dimethylpyrazolo[1,5-a]pyrazin-2-yl)-6-(morpholin-4-yl)quinazolin-4(3H)-one] | * (equal to or higher than 100% but lower than 120%) |
| Cc1cn2cc(-c3cc(F)c4nc(C5(F)CCN(C)CC5)[nH]c(=O)c4c3)cc(F)c2n1 [Example 97, 8-fluoro-6-(8-fluoro-2-methylimidazo[1,2-a]pyridin-6-yl)-2-(4-fluoro-1-methylpiperidin-4-yl)quinazolin-4(3H)-one] | **** (equal to or higher than 180%) |
| Cc1nc2c(F)cc(-c3cc(F)c4nc(C5CCN(C)CC5)[nH]c(=O)c4c3)cc2o1 [Example 24, 8-Fluoro-6-(4-fluoro-2-methyl-1,3-benzoxazole 6-yl)-2-(1-methylpiperidin-4-yl) quinazoline 4-(3H)-one] | **** (equal to or higher than 180%) |
| Cc1nc2c(F)cc(-c3cc4c(=O)[nH]c(C5(F)CCN(C6CC6)CC5)nc4cn3)cc2o1 [Example 107, 2-(1-cyclopropyl-4-fluoropiperidin-4-yl)-6-(4-fluoro-2-methyl-1,3-benzoxazol-6-yl)pyrido[3,4-d]pyrimidin-4(3H)-one] | ** (equal to or higher than 120% but lower than 150%) |
| Cc1cn2cc(-c3ccc4nc(C5(F)CCN(C6CC6)CC5)[nH]c(=O)c4n3)cc(F)c2n1 [Example 102, 2-(1-cyclopropyl-4-fluoropiperidin-4-yl)-6-(8-fluoro-2-methylimidazo[1,2-a]pyridin-6-yl)pyrido[3,2-d]pyrimidin-4(3H)-one] | ** (equal to or higher than 120% but lower than 150%) |
| CC[C@@H]1CN(C)CCN1c1ccc2nc(-c3cc4c(C)nc(C)cn4n3)[nH]c(=O)c2c1 [Example 132, (R)-2-(4,6-dimethylpyrazolo[1,5-a]pyrazin-2-yl)-6-(2-ethyl-4-methylpiperazin-1-yl)quinazolin-4(3H4)-one] | *** (equal to or higher than 150% but lower than 180%) |
| Cc1nc2ccc(-c3ccc4nc(C5CCN(C)CC5)[nH]c(=O)c4c3)cc2s1 [Example 14, 6-(2-Methyl-1,3-benzothiazol-6-yl)-2-(1-methylpiperidin-4-yl)quinazolin-4(3H)-one] | *** (equal to or higher than 150% but lower than 180%) |
| Cc1cn2cc(-c3cc(C)c4nc(C5CCN(C6CC6)CC5)[nH]c(=O)c4c3)cc(F)c2n1 [Example 40, 2-(1-cyclopropylpiperidin-4-yl)-6-(8-fluoro-2-methylimidazo[1,2-a]pyridin-6-yl)-8-methylquinazolin-4(3H)-one] | **** (equal to or higher than 180%) |
| Cc1cn2cc(-c3ccc4nc(C5CCN(C)CC5)[nH]c(=O)c4c3)cc2cn1 [Example 15, 2-(1-Methylpiperidin-4-yl)-6-(3-methylpyrrolo[1,2-α]pyrazin-7-yl)quinazolin-4(3H)-one] | **** (equal to or higher than 180%) |
| CN1CCC(c2ccc3nc(-c4cc5n(n4)CCOC5)[nH]c(=O)c3c2)CC1 [Example 46, 2-(6,7-dihyrdo-4H-pyrazolo[5,1-c][1,4]oxazin-2-yl)-6-(1-methylpiperidin-4-yl)quinazolin-4(3H)-one] | * (equal to or higher than 100% but lower than 120%) |
| COc1cc(C2CCN(C)CC2)cc2c(=O)[nH]c(-c3cc4c(C)nc(C)cn4n3)nc12 [Example 52, 2-(4,6-dimethylpyrazolo[1,5-a]pyrazin-2-yl)-8-methoxy-6-(1-methylpiperidin-4-yl)quinazolin-4(3H)-one] | ** (equal to or higher than 120% but lower than 150%) |
| CN1CCC(c2nc3ccc(-c4ccc(-c5cnn(C)c5)cc4)cc3c(=O)[nH]2)CC1 [Example 77, 2-(1-methylpiperidin-4-yl)-6-[4-(1-methyl-1H-pyrazol-4-yl)phenyl]quinazolin-4(3H)-one] | * (equal to or higher than 100% but lower than 120%) |
| Cc1nc2ccc(-c3nc4cc(C)c(C5CCN(C)CC5)cc4c(=O)[nH]3)cc2o1 [Example 41, 7-methyl-2-(2-methyl-1,3-benzoxazol-6-yl)-6-(1-methylpiperidin-4-yl)quinazolin-4(3H)-one] | * (equal to or higher than 100% but lower than 120%) |
| Cc1cn2nc(-c3nc4ccc(C5CCN(C)CC5)c(F)c4c(=O)[nH]3)cc2c(C)n1 [Example 4, 2-(4,6-Dimethylpyrazolo[1,5-α]pyrazin-2-yl)-5-fluoro-6-(1-methylpiperidin-4-yl)quinazolin-4(3H)-one] | **** (equal to or higher than 180%) |
| Cc1cn2cc(-c3cc(C)c4nc(C5(F)CCN(C(C)C)CC5)[nH]c(=O)c4n3)cc(F)c2n1 [Example 101, 2-(4-fluoro-1-isopropylpiperidin-4-yl)-6-(8-fluoro-2-methylimidazo[1,2-a]pyridin-6-yl)-8-methylpyrido[3,2-d]pyrimidin-4(3H)-one] | *** (equal to or higher than 150% but lower than 180%) |
| Cc1cn2nc(-c3nc4cc(F)c(N5CCN(C)CC5)cc4c(=O)[nH]3)cc2c(C)n1 [Example 7, 2-(4,6-Dimethylpyrazolo[1,5-α]pyrazin-2-yl)-7-fluoro-6-(4-methylpiperazin-1-yl)quinazolin-4(3H)-one] | *** (equal to or higher than 150% but lower than 180%) |
| Cc1cn2cc(-c3cc(F)c4nc(C5(F)CCN(C)CC5)[nH]c(=O)c4c3)ccc2n1 [Example 94, 8-fluoro-2-(4-fluoro-1-methylpiperidin-4-yl)-6-(2-methylimidazo[1,2-a]pyridin-6-yl)quinazolin-4(3H)-one] | *** (equal to or higher than 150% but lower than 180%) |
| CCN1CCC(F)(c2nc3cnc(-c4cc(F)c5nc(C)cn5c4)cc3c(=O)[nH]2)CC1 [Example 109, 2-(1-ethyl-4-fluoropiperidin-4-yl)-6-(8-fluoro-2-methylimidazo[1,2-a]pyridin-6-yl)pyrido[3,4-d]pyrimidin-4(3H)-one] | *** (equal to or higher than 150% but lower than 180%) |
| CN1CCC(c2nc3ccc(-c4ccc5nc(C(F)(F)F)cn5c4)cc3c(=O)[nH]2)CC1 [Example 66, 2-(1-methylpiperidin-4-yl)-6-[2-(trifluoromethyl)imidazo [1,2-a]pyridin-6-yl]quinazolin-4(3H)-one] | * (equal to or higher than 100% but lower than 120%) |
